The source of these data is US20070082841A1, “Ocular administration of immunosuppressive agents” (Aciont, Inc., priority 2005, published 2007).

This series in a line: Ocular iontophoretic delivery of MPA in rabbits; amounts in eye tissues by HPLC. It counts as in vivo, New Zealand white rabbits. As to conditions: rabbit eye; iontophoresis 3 mA for 20 minutes, 20 μL of 0.6 M MPA in 1% agarose gel, 0.07 cm^2; 15 minutes after delivery. The method, then:
Three New Zealand white rabbits were each fitted with ocular iontophoretic device on one eye. Each device contained 20 μL of 0.6 M mycophenolic acid (MPA) in 1% agarose gel. A vacuum was provided between the eyes of the rabbits and the ocular iontophoretic device by withdrawing 0.2 cc from the space therebetween. MPA was iontophoretically delivered from the cathodes of the devices on the conjunctiva/sclera near the limbus and the upper eyelid using constant current control from standard iontophoretic dose controller. The MPA was iontophoretically delivered through a surface area of 0.07 cm^2 at 3 mA for 20 minutes. The anode electrode was attached on the rabbit's ear, opposite the treatment eye. Rabbits were euthanized at 15 minutes following completion of the iontophoretic delivery. Treatment eyes were dissected and the amounts of MPA in the conjunctiva, sclera, retina, and vitreous were determined using HPLC assay.

In the case of `COc1c(C)c2c(c(O)c1C/C=C(\C)CCC(=O)O)C(=O)OC2` [MPA, mycophenolic acid], the “MPA Amount, Conjunctiva” value was determined as 30.45 µg; the “MPA Amount, Retina” value worked out at 1.60 µg; the “MPA Amount, Sclera” value turned out to be 20.65 µg; the “MPA Amount, Total (combined total for all of the dissections)” value worked out at 60.75 µg. For the same compound, the “MPA Amount, Vitreous” value stood at 2.45 µg.
